Assay results reported in patent US12473249B2, “Aromatic compounds and pharmaceutical uses thereof” (BASF AS, priority 2018, dated 2025).

How the values were obtained:
Type in all cases: in vivo, mouse
[1] = system: C57BL/6 mice; assay: Hepatic steatosis and organ mass in oral PN diet fed C57BL/6 mice, subsequent experiment at two dosages (H&E); conditions: 19 days
Text: (§1) Male C57BL/6 mice, 6 to 8 weeks old at initiation of the experiments, were used for all experimental groups. Mice were fed either an ad libitum diet of standard rodent chow (calorie composition: 26% protein, 14% fat, 60% carbohydrates) and water or a parenteral nutrition (PN) solution that mimics the PN diet used in neonatal intensive care units. The PN solution was a fat-free, high-carbohydrate liquid diet (20% dextrose, 2% essential and nonessential amino acids, 0.2% pediatric trace elements, 0.5% pediatric multivitamins, 30 mEq of sodium, 20 mEq of potassium, 15 mEq of calcium (as calcium gluconate), 10 mEq of magnesium, 10 mEq of phosphate, 5 mEq of acetate, and 30 mEq of chloride per liter) administered as a single 50 mL bottle per cage which mice consumed ad libitum. […] Prince et al., JPEN J Parenter Enteral Nutr., 2014; 38(5): 608-616.
In a subsequent experiment, both Compound A and Compound B were tested at two dosages. The results of this experiment are described in Example 15.
Male C57BL/6 mice, 6 to 8 weeks old at initiation of the experiments, were used for all experimental groups. One group was fed an ad libitum diet of standard rodent chow and water. The group fed standard rodent chow received no additional treatments during the experimental period and served as a negative control group. Seven other groups (10 mice per group) were fed the PN solution described above ad libitum.
Of the seven groups that received the PN diet, each group received one of the following orogastric protocols administered every other day over 19 days: • (1) Saline: saline solution administered isovolumetric with the Omegaven® group; • (2) MCT: medium-chain triglyceride oil (MCT) (Nestle™ HealthCare Nutrition, Florham Park, NJ), at a dose of 7.4 g of fat/kg body weight; • (3) Omegaven®: Omegaven® (commercial fish oil lipid emulsion) at a dose of 2.4 g fat/kg body weight; • (4) Compound A LOW: Compound A at a dose of 0.3 mmol/kg bw day (diluted in MCT to 0.0375 mmol/mL, resulting in administration of 7.4 g of MCT/kg weight); • (5) Compound A HI: Compound A at a dose of 0.6 mmol/kg bw day (diluted in MCT to 0.075 mmol/mL, resulting in administration of 7.4 g of MCT/kg weight); • (6) Compound B LOW: Compound B at a dose of 0.3 mmol/kg bw day (diluted in MCT to 0.0375 mmol/mL, resulting in administration of 7.4 g of MCT/kg weight); and • (7) Compound B HI: Compound B at a dose of 0.6 mmol/kg bw day (diluted in MCT to 0.075 mmol/mL, resulting in administration of 7.4 g of MCT/kg weight).
After 19 days of treatment, organs were harvested, including the liver, kidney, and spleen, which were analyzed for relative weight between each group. Livers were also fixed and frozen on dry ice, then stored at −80° C. for hematoxylin and eosin (H&E) stain analysis and Oil Red O analysis.

[2] = system: C57BL/6 mice; assay: Hepatic steatosis in oral PN diet fed C57BL/6 mice, initial experiment (Oil Red O); conditions: 19 days, 0.3 mmol/kg bw day in MCT by orogastric gavage
Text: as §1
In the initial experiment, only Compound A was tested. The results of this experiment are described in Example 14.
Male C57BL/6 mice, 6 weeks old at initiation of experiments, were divided into three groups (10 mice per group). One group was fed an ad libitum diet of standard rodent chow and water. The group fed standard rodent chow received no additional treatments during the experimental period and served as a negative control group. The two other groups were fed the above-described PN diet. […]

[3] = system: ob/ob AMLN mice; assay: Glycemic control (oral glucose tolerance test, fasting glucose and insulin) in ob/ob AMLN mice; conditions: 0.3 mmol/kg bw day
Procedure: (§2) ob/ob mice are consistently fibrosis (liver) prone when cholesterol (2%) and 40% fat (containing 18% trans-fatty acids) and 20% fructose are added to a high-caloric diet (i.e., AMLN diet). ob/ob mice on AMLN diet (termed ‘ob/ob AMLN mice’) develop steatohepatitis and fibrosis within a shorter timeframe (<12 weeks) compared with wild-type C57BL/6 mice (AMLN mice) fed the same diet. ob/ob AMLN mice provide an obese diet-induced model of NASH that also allows the study of effects on glycemic control.
Thirty male ob/ob mice (5 weeks old) were fed the AMLN diet for 15 weeks then randomised into 3 groups of 10 mice/group to receive Compound B or Compound A (both at 0.3 mmol/kg bw day) or no treatment (vehicle) for a further 4 weeks. Assessment of the hepatic expression of key genes regulating plasma lipid concentrations (LDLr), hepatic fibrosis (collA1), bile acid transport/re-uptake (Slc51b and Slc10a2) and inflammation (CD68) was made via RNA sequencing at 4 weeks. […] An additional group of mice (n=5) were also treated with a PPAR-γ agonist (pioglitazone, 30 mg/kg bw day) was also included to compare effects upon bodyweight.

[4] = Relative bodyweight in ob/ob AMLN mice; conditions: 0.3 mmol/kg bw day, 4 weeks treatment, FIG. 11
Procedure: as §2
(§3) Thirty male ob/ob mice (5 weeks old) were fed the AMLN diet for 15 weeks then randomised into 3 groups of 10 mice/group to receive Compound B or Compound A (both at 0.3 mmol/kg bw day) or no treatment (vehicle) for a further 4 weeks. Assessment of the hepatic expression of key genes regulating plasma lipid concentrations (LDLr), hepatic fibrosis (collA1), bile acid transport/re-uptake (Slc51b and Slc10a2) and inflammation (CD68) was made via RNA sequencing at 4 weeks. To assess the effects of Compound B and Compound A on glycemic control, an oral glucose tolerance test (OGTT) was also performed at 3 weeks. An additional group of mice (n=5) were also treated with a PPAR-γ agonist (pioglitazone, 30 mg/kg bw day) was also included to compare effects upon bodyweight.

[5] = system: hepatic expression of key genes; assay: Hepatic target gene expression via RNA sequencing in ob/ob AMLN mice; conditions: 0.3 mmol/kg bw day, 4 weeks treatment
Procedure: as §2, §3

[6] = oral PN diet, high and low dosages, FIG. 18

body mass vs chow-fed or PN-fed saline groups [1, 6]: not significantly different | liver/body mass vs chow-fed or PN-fed saline groups [1, 6]: not significantly different | spleen/body mass vs chow-fed or PN-fed saline groups [1, 6]: not significantly different | liver architecture ([2]; oral PN diet): Normal liver architecture
SMILES: CCCCCOc1cccc(C(=O)O)c1C [Compound A, 2-methyl-3-(pentyloxy)benzoic acid]
development of steatosis induced by an oral PN diet (H&E stain in isolated liver sections) ([1]; 0.3 and 0.6 mmol/kg bw day in MCT by orogastric gavage, FIGS. 14-17): prevented the development of steatosis | development of steatosis induced by an oral PN diet (Red Oil O stain in isolated liver sections) ([2]; FIG. 13): prevented the development of steatosis | total plasma glucose (area-under-the-curve from 0-240 mins) versus vehicle in response to an oral glucose load ([3]; after 3 weeks treatment, FIG. 1): significantly reduce | plasma glucose at 30- and 60-mins versus vehicle in response to an oral glucose load ([3]; after 3 weeks treatment, FIG. 2): significantly reduce | fasting plasma insulin versus vehicle ([3]; after 4 weeks treatment, FIG. 3): reduce | fasting plasma glucose versus vehicle ([3]; after 4 weeks treatment, FIG. 4): significantly reduce | relative bodyweight versus vehicle [4]: significantly decreased | hepatic expression of Coll al (collagen1a1) versus vehicle ([5]; FIG. 5): significantly reduce | hepatic expression of Slc10a2 versus vehicle ([5]; FIG. 6): significantly decreases | hepatic expression of Slc51b versus vehicle ([5]; FIG. 7): significantly decreases | hepatic expression of ABCC2 versus vehicle ([5]; FIG. 8): significantly increases | hepatic expression of CYP7A1 ([5]; FIG. 9): reduces | hepatic expression of CD68 versus vehicle ([5]; FIG. 10): significantly decreases | expression of hepatic LDLr versus vehicle ([5]; FIG. 12): significantly increase
